# According to US11472788B2, “Benzoimidazoles as selective inhibitors of indoleamine 2,3-dioxygenases” (BEIGENE, LTD., priority 2017, dated 2022):
# Biological target: cellular IDO1 in HeLa cells (Homo sapiens (Human), UniProt P14902)
# Assay: HeLa Cell-Based IDO1 Kyn (Kynurenine) Production Assay
# Conditions: IFN-γ induced IDO1, 48 hours incubation, Kyn absorbance at 480 nm
# Method: HeLa Cell-Based IDO1 Kyn (Kynurenine) Production Assay:
# The inhibitory activity of IDO1 inhibitors is determined by using a colorimetric reaction to measure Kyn generated from L-Trp (L-Tryptophon) oxidation by cellular IDO1 in HeLa cells after induction of IDO1 expression by IFN-γ.
# Hela cells were obtained from the American Type Culture Collection and recovered in 10% FBS-containing phenol red-free DMEM medium. Cells were plated onto a 96-well plate (100 μl/well) at 8000 cells per well and kept at 37° C. in a humidified incubator supplied with 5% CO2. 4 hours later, Human recombinant IFN-γ (8901SC, CST) was added to cells (final concentration 100 ng/mL) to stimulate endogenous IDOL. Compounds at different concentrations diluted in dimethylsulfoxide (DMSO) were added simultaneously with IFN-γ and 0.4 mM L-Trp. Cells were kept at 37° C. in a humidified incubator supplied with 5% CO2. After 48 hours of incubation, 100 μl supernatant from each well was removed to a new plate. The protein in the medium was precipitated with the addition of 8 μl 6N trichloroacetic acid. The plate was incubated at 60° C. for 30 minutes and then centrifugation at 2500 rpm for 10 minutes to remove sediments. 80 μl supernatants were carefully removed to a new clean plate and added with an equal volume of 2% 4-(Dimethylamino)benzaldehyde (D2004, sigma) dissolved in glacial acetic acid. The absorbance at 480 nm wavelength derived from Kyn was measured using a PHERAstar FS plate reader (BMG LABTECH). The IC5C for each compound was derived from fitting the dose-response data to the four-parameter logistic model by using XLfit software (IDBS).
# Sequence of cellular IDO1 in HeLa cells (P14902 whole entry): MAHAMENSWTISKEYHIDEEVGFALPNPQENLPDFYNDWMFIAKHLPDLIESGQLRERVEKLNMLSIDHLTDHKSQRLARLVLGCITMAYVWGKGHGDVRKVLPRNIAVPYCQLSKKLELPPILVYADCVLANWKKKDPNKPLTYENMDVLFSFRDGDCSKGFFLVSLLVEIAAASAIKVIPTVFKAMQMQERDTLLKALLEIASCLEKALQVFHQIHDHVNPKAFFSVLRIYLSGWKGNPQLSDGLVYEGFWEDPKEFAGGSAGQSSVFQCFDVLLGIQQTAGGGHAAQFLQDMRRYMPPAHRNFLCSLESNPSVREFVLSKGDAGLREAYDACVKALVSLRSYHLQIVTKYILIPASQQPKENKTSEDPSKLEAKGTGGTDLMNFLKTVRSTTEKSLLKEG
row,EC50 [nM],SMILES
1,283,"C[C@@H](c1nc2ccc(S(C)(=O)=O)cc2[nH]1)[C@H]1CC[C@H](c2ccnc3ccc(F)cc32)CC1 [Example B178, 6-fluoro-4-((1R,4r)-4-((R)-1-(6-(methylsulfonyl)-1H-benzo[d]imidazol-2-yl)ethyl)cyclohexyl)quinoline]"
2,36.2,"CC(=O)Nc1ccc2nc([C@H](C)[C@H]3CC[C@@H](c4ccnc5ccc(F)cc54)CC3)[nH]c2c1 [Example B179, N-(2-((R)-1-((1r,4R)-4-(6-fluoroquinolin-4-yl)cyclohexyl)ethyl)-1H-benzo[d]imidazol-6-yl)acetamide]"
3,> 1000,"CC(c1nc2cc(C(=O)NCC3(O)CCC3)ccc2[nH]1)[C@H]1CC[C@@H](c2ccnc3ccc(F)cc32)CC1 (some centres unmarked) [Example B183, 2-(1-((1s,4s)-4-(6-fluoroquinolin-4-yl)cyclohexyl)ethyl)-N-((1-hydroxycyclobutyl)methyl)-1H-benzo[d]imidazole-5-carboxamide]"
4,193,"COC1CCC(NC(=O)c2ccc3[nH]c(C(C)[C@H]4CC[C@H](c5ccnc6ccc(F)cc65)CC4)nc3c2)CC1 (some centres unmarked) [Example B186, 2-(1-((1r,4r)-4-(6-fluoroquinolin-4-yl)cyclohexyl)ethyl)-N-(4-methoxycyclohexyl)-1H-benzo[d]imidazole-5-carboxamide]"
5,5.74,"C[C@@H](c1nc2cc(F)c(F)c(Cl)c2[nH]1)[C@H]1CC[C@H](c2ccnc3ccc(F)cc32)CC1 [Example B190, 4-((1R,4r)-4-((R)-1-(7-chloro-5,6-difluoro-1H-benzo[d]imidazol-2-yl)ethyl)cyclohexyl)-6-fluoroquinoline]"
6,8.1,"C[C@@H](c1nc2ccc(C3=NCCO3)cc2[nH]1)[C@H]1CC[C@@H](c2ccnc3ccc(F)cc32)CC1 [Example B197, 2-(2-((R)-1-((1s,4S)-4-(6-fluoroquinolin-4-yl)cyclohexyl)ethyl)-1H-benzo[d]imidazol-6-yl)-4,5-dihydrooxazole]"
7,8.8,"CC(c1nc2cc(F)c(F)c(Cl)c2[nH]1)[C@H]1CC[C@@H](c2ccnc3ccc(F)cc32)CC1 (some centres unmarked) [Example B203, 4-((1s,4s)-4-(1-(7-chloro-5,6-difluoro-1H-benzo[d]imidazol-2-yl)ethyl)cyclohexyl)-6-fluoroquinoline]"
8,27.1,"Cc1cc(C(=O)NC2CCC2)cc2[nH]c(C(C)C3CCC(c4ccnc5ccc(F)cc45)CC3)nc12 (centres unmarked) [Example B206, N-cyclobutyl-2-(1-(4-(6-fluoroquinolin-4-yl)cyclohexyl)ethyl)-4-methyl-1H-benzo[d]imidazole-6-carboxamide]"
9,18.4,COC(=O)c1ccc(C(F)(F)F)c2[nH]c(C(C)[C@H]3CC[C@@H](c4ccnc5ccc(F)cc54)CC3)nc12 (some centres unmarked) [Example B207]
10,1.2,Cc1noc(-c2ccc3[nH]c(C(C)[C@H]4CC[C@@H](c5ccnc6ccc(F)cc65)CC4)nc3c2)n1 (some centres unmarked) [Example B217]

# Continued, compound first:
row,SMILES,EC50 [nM]
1,"CC(c1nc2c(F)c(F)cc(Cl)c2[nH]1)[C@H]1CC[C@@H](c2ccnc3ccc(F)cc32)CC1 (some centres unmarked) [Example B172, 4-((1s,4s)-4-(1-(7-chloro-4,5-difluoro-1H-benzo[d]imidazol-2-yl)ethyl)cyclohexyl)-6-fluoroquinoline]",16.4
2,"C[C@@H](c1nc2cc3ccccc3cc2[nH]1)[C@H]1CC[C@@H](c2ccnc3ccc(F)cc32)CC1 [Example B173, 2-((R)-1-((1s,4S)-4-(6-fluoroquinolin-4-yl)cyclohexyl)ethyl)-1H-naphtho[2,3-d]imidazole]",12.7
3,"C[C@@H](c1nc2ccc(NS(C)(=O)=O)cc2[nH]1)[C@H]1CC[C@@H](c2ccnc3ccc(F)cc32)CC1 [Example B180, N-(2-((R)-1-((1r,4R)-4-(6-fluoroquinolin-4-yl)cyclohexyl)ethyl)-1H-benzo[d]imidazol-6-yl)methanesulfonamide]",384
4,"CC(c1nc2cc(C(=O)Nc3ccccc3)ccc2[nH]1)[C@H]1CC[C@@H](c2ccnc3ccc(F)cc32)CC1 (some centres unmarked) [Example B182, 2-(1-((1s,4s)-4-(6-fluoroquinolin-4-yl)cyclohexyl)ethyl)-N-phenyl-1H-benzo[d]imidazole-5-carboxamide]",86.7
5,"CC(c1nc2cc(C(=O)NCC3(O)CCC3)ccc2[nH]1)[C@H]1CC[C@H](c2ccnc3ccc(F)cc32)CC1 (some centres unmarked) [Example B184, 2-(1-((1r,4r)-4-(6-fluoroquinolin-4-yl)cyclohexyl)ethyl)-N-((1-hydroxycyclobutyl)methyl)-1H-benzo[d]imidazole-5-carboxamide]",> 1000
6,"COC1CCC(NC(=O)c2ccc3[nH]c(C(C)[C@H]4CC[C@@H](c5ccnc6ccc(F)cc65)CC4)nc3c2)CC1 (some centres unmarked) [Example B185, 2-(1-((1s,4s)-4-(6-fluoroquinolin-4-yl)cyclohexyl)ethyl)-N-(4-methoxycyclohexyl)-1H-benzo[d]imidazole-5-carboxamide]",122
7,"C[C@@H](c1nc2cc(F)c(F)c(Cl)c2[nH]1)[C@H]1CC[C@@H](c2ccnc3ccc(F)cc32)CC1 [Example B189, 4-((1R,4s)-4-((S)-1-(7-chloro-5,6-difluoro-1H-benzo[d]imidazol-2-yl)ethyl)cyclohexyl)-6-fluoroquinoline]",45.9
8,CON(C)C(=O)c1ccc2nc([C@H](C)[C@H]3CC[C@@H](c4ccnc5ccc(F)cc54)CC3)[nH]c2c1 [Example B196],26.5
9,"COC(=O)c1c(F)ccc2[nH]c([C@@H](C)[C@H]3CC[C@@H](c4ccnc5ccc(F)cc54)CC3)nc12 [Example B198, methyl 5-fluoro-2-((S)-1-((1s,4R)-4-(6-fluoroquinolin-4-yl)cyclohexyl)ethyl)-1H-benzo[d]imidazole-4-carboxylate]",984
10,"COC(=O)c1c(F)ccc2[nH]c([C@H](C)[C@H]3CC[C@@H](c4ccnc5ccc(F)cc54)CC3)nc12 [Example B199, methyl 5-fluoro-2-((R)-1-((1s,4S)-4-(6-fluoroquinolin-4-yl)cyclohexyl)ethyl)-1H-benzo[d]imidazole-4-carboxylate]",21.9
11,"CCOC(=O)c1cc2nc([C@@H](C)C3CCC(c4ccnc5ccc(F)cc45)CC3)[nH]c2cc1C (stereo partly drawn) [Example B200, ethyl 2-((S)-1-((1s,4S)-4-(6-fluoroquinolin-4-yl)cyclohexyl)ethyl)-6-methyl-1H-benzo[d]imidazole-5-carboxylate]",73.3
12,"CCOC(=O)c1cc2nc([C@H](C)[C@H]3CC[C@@H](c4ccnc5ccc(F)cc54)CC3)[nH]c2cc1C [Example B201, ethyl 2-((R)-1-((1s,4S)-4-(6-fluoroquinolin-4-yl)cyclohexyl)ethyl)-6-methyl-1H-benzo[d]imidazole-5-carboxylate]",1.6
13,"CC(=O)c1ccc2nc([C@H](C)[C@H]3CC[C@@H](c4ccnc5ccc(F)cc54)CC3)[nH]c2c1 [Example B202, 1-(2-((R)-1-((1s,4S)-4-(6-fluoroquinolin-4-yl)cyclohexyl)ethyl)-1H-benzo[d]imidazol-6-yl)ethan-1-one]",2.9
14,"C[C@@H](c1nc2c(F)cc(F)c(Cl)c2[nH]1)[C@H]1CC[C@@H](c2ccnc3ccc(F)cc32)CC1 [Example B204, 4-((1R,4s)-4-((S)-1-(7-chloro-4,6-difluoro-1H-benzo[d]imidazol-2-yl)ethyl)cyclohexyl)-6-fluoroquinoline]",6.79
15,"C[C@@H](c1nc2c(F)cc(F)c(Cl)c2[nH]1)[C@H]1CC[C@H](c2ccnc3ccc(F)cc32)CC1 [Example B205, 4-((1R,4r)-4-((R)-1-(7-chloro-4,6-difluoro-1H-benzo[d]imidazol-2-yl)ethyl)cyclohexyl)-6-fluoroquinoline]",28.9
16,"COC(=O)c1cccc2[nH]c([C@H](C)[C@H]3CC[C@@H](c4ccnc5ccc(F)cc54)CC3)nc12 [Example B210, methyl 2-((R)-1-((1s,4S)-4-(6-fluoroquinolin-4-yl)cyclohexyl)ethyl)-1H-benzo[d]imidazole-4-carboxylate]",26.6
17,"C[C@H](c1nc2c(ccc3ccccc32)[nH]1)[C@H]1CC[C@@H](c2ccnc3ccc(F)cc32)CC1 [Example B211, 2-((S)-1-((1s,4R)-4-(6-fluoroquinolin-4-yl)cyclohexyl)ethyl)-3H-naphtho[1,2-d]imidazole]",1.3
18,"C[C@@H](c1nc2c(ccc3ccccc32)[nH]1)[C@H]1CC[C@H](c2ccnc3ccc(F)cc32)CC1 [Example B212, 2-((R)-1-((1r,4R)-4-(6-fluoroquinolin-4-yl)cyclohexyl)ethyl)-3H-naphtho[1,2-d]imidazole]",27.9
19,"COCCNC(=O)c1ccc2[nH]c(C(C)[C@H]3CC[C@@H](c4ccnc5ccc(F)cc54)CC3)nc2c1 (some centres unmarked) [Example B216, 2-(1-((1s,4s)-4-(6-fluoroquinolin-4-yl)cyclohexyl)ethyl)-N-(2-methoxyethyl)-1H-benzo[d]imidazole-5-carboxamide]",62.9
